# Experimental data taken from US4207330A, “Method for treating hyperglycemia in mammals using arylamino benzoic acids” (The Dow Chemical Company, priority 1979, dated 1980).
# Like-named read-outs stand apart in the source and are kept apart here.
# Tested on: serum glucose
# Experiment: Hypoglycemic activity in alanine-induced mice (percent lowering of serum glucose; ED50)
# Type: in vivo, male Swiss-Webster mice
# Conditions: for inhibition in vivo at 60 mg/kg / ED50: Mus musculus, ip, 1 h; for inhibition in vivo at 60 mg/kg: 60 mg/kg intraperitoneal, 15 min before 10 mmol/kg L-alanine i.p., serum glucose 60 min after compound, 100% = lowering from alanine-induced level to fasted control level, read-out: % Lowering Blood Sugar; for ED50: read-out: ED50 (amount required to obtain a 50% reduction in serum glucose as compared to the control animals)
# Experimental: Alanine is the most glucogenic of the amino acids and also stimulates gluconeogensis in normal animals. Animals suffering from diabetes show an exaggerated hyperglycemic response to a protein or amino acid meal, therefore the hyperglycemic state induced by alanine closely parallels the response of a diabetic mammal.
# Fifteen minutes later the same mice were injected intrapertioneally with 10 m moles/kg body weight of L-alanine. Sixty minutes after injection of the active compound, the animals were sacrificed and their sera were analyzed for glucose. The control consisted of both fasted mice and mice injected with alanine. The results are expressed as percent lowering of serum glucose from the alanine induced hyperglycemic level to the fasted control glucose level, i.e. lowering to the fasting glucose level is 100% lowering.
# The effective dose (ED50) of several of the subject compounds were determined.
# *effective dose represents the amount of the active ingredient required t
# obtain a 50% reduction in serum glucose as compared to the control
# [1] = 50% reduction in serum glucose vs control animals
Compound,inhibition in vivo at 60 mg/kg [%],other results
"O=C(O)c1ccc(Nc2ccccc2)cc1 [Example 1, p-anilinobenzoic acid]",88,–
"CC(C)c1ccc(CNc2ccc(C(=O)O)cc2)cc1 [Example 2, 4-(((4-(1-methylethyl)phenyl)methyl)amino)benzoic acid]",78,–
"O=C(O)c1ccc(NCc2ccc(Cl)cc2)cc1 [Example 3, 4-(((4-chlorophenyl)methyl)amino)benzoic acid]",111,ED50 [1]: 11 mg/kg
"Cc1ccc(CNc2ccc(C(=O)O)cc2)cc1 [Example 4, 4-(((4-methylphenyl)methyl)amino)benzoic acid]",144,ED50 [1]: 15 mg/kg
"CCc1ccc(CNc2ccc(C(=O)O)cc2)cc1 [Example 5, 4-(((4-ethylphenyl)methyl)amino)benzoic acid]",96,ED50 [1]: 15 mg/kg
"O=C(O)c1ccc(NCc2ccc(F)cc2)cc1 [Example 6, 4-(((4-fluorophenyl)methyl)amino)benzoic acid]",110,–
"CCOC(=O)c1ccc(NCc2cccs2)cc1 [Example 7, 4-((2-thienylmethyl)amino)benzoic acid ethyl ester]",78,–
"O=C(O)c1ccc(NCc2cccs2)cc1 [Example 8, 4-((2-thienylmethyl)amino)benzoic acid]",51,–
"O=C(O)c1ccc(NCc2cccc(Cl)c2)cc1 [Example 9, 4-(((3-chlorophenyl)methyl)amino)benzoic acid]",64,–
"O=C(O)c1ccc(NCCCc2ccccc2)cc1 [Example 10, 4-((3-phenylpropyl)amino)benzoic acid]",99,–
"O=C(O)c1ccc(NCc2ccc(C(F)(F)F)cc2)cc1 [Example 11, 4-(((4-(trifluoromethyl)phenyl)methyl)amino)benzoic]",106,–
"O=C(O)c1ccc(NCc2ccc(Cl)cc2)cc1.[Na] [Example 12, 4-(((4-chlorophenyl)methyl)amino)benzoic acid sodium]",–,ED50: 6 mg/kg
"O=C(O)c1ccc(NCc2cccc(F)c2)cc1 [Example 13, 4-(((3-fluorophenyl)methyl)amino)benzoic acid]",52,–
"O=C(O)c1ccc(NCc2cc(Cl)c(Cl)s2)cc1 [Example 14, 4-(((4,5-dichloro-2-thienyl)methyl)amino)benzoic acid]",83,–
"O=C(O)c1ccc(NCc2ccc(Br)s2)cc1 [Example 15, 4-(((5-bromo-2-thienyl)methyl)amino)benzoic acid]",210,"ED50 [1]: 4.6 mg/kg; hypoglycemic activity at low dosage (in words) (mice, dosages as low as 7.5 mg per kg of body weight): significant hypoglycemic activity; hypoglycemic activity (in words) (mice, compounds tested): highest activity as a hypoglycemic agent of the compounds tested"
